Assay results as given in article PMC5140066, “Electrophysiological Characteristics of Human iPSC-Derived Cardiomyocytes for the Assessment of Drug-Induced Proarrhythmic Potential” (PLoS ONE, 2016).
Blank lines part the entries; values can stand above or below the compound they belong to.

Columns and labels:
[1] = system: dogs with subacute myocardial infarction; set-up: method as in PMID 11005588; settings: cited from earlier work
[2] = system: human induced pluripotent stem cell-derived cardiomyocytes (hiPSC-CMs); assay: Field potential recording of hiPSC-CM sheets on multi-electrode array (MEA); format: cell-based; settings: for Effect on FPD: cumulative application; for Use (rate) dependence of FPD prolongation: from FPD-ISI plots
Description: The cells were thawed and suspended in iCell Cardiomyocytes Plating Medium (Cellular Dynamics International), then plated (approximately 2 × 10^6 cells/well) in 6-well tissue-culture plates coated with 0.1% gelatin. After two days of incubation at 37°C under an atmosphere of 5% CO2, the plating medium was replaced with iCell Cardiomyocytes Maintenance Medium (Cellular Dynamics International); this medium was used as the culture medium throughout the experiments and was replaced every 1 to 3 days. The cells were cultured for 7 to 14 days in a 5% CO2 incubator at 37°C and then re-plated onto MEA probes (MED-P515A or MED-PG515A; Alpha Med Scientific, Osaka, Japan).
The recording areas of the MEA probes were coated with fibronectin (Becton Dickinson, Franklin Lakes, NJ, USA; Invitrogen, Carlsbad, CA, USA; Corning, Corning, NY, USA). Fibronectin was dissolved in distilled water or Dulbecco's phosphate-buffered saline (PBS) [−] to give 50 μg/mL, the recording areas were covered with 2 μL fibronectin solution, and then the MEA probes were incubated at 37°C for at least 1 h. […] After discarding the fibronectin solution from the MEA probes without complete drying, the cell suspension at a density of 3.0 × 10^4 cells in a 2 μL droplet was re-plated onto the fibronectin-coated area of each MEA probe and incubated for 1 to 3 h in a 5% CO2 incubator at 37°C. Each well of the MEA probes was then filled with maintenance medium at a volume of 1 mL/well. The medium was replaced every 1 to 3 days thereafter, and the cells were cultured for 5 to 14 days to obtain high density cardiomyocyte-sheets with spontaneous and synchronous electrical activities.
Prior to recording FPs, the cardiomyocyte-sheets were equilibrated for at least 30 min in a 5% CO2 incubator at 37°C in fresh culture medium. The MEA probes were then transferred to a FP measurement apparatus (MED64 system; Alpha Med Scientific, Osaka, Japan) and covered with a lid through which humidified gas containing 5% CO2 was provided. […] Analogue FP signals from the spontaneously beating cardiomyocyte-sheets were acquired through a 0.1-Hz high-pass filter and a 5-kHz low-pass filter, and digitized at 20 kHz using the MED64 system. […] Compound stock solutions were prepared using DMSO at 1000-fold the target concentrations of the test compounds. The stock solutions were diluted with the maintenance medium to obtain the appropriate compound concentrations, then 1/10th to 1/50th the volume of the medium in the wells was exchanged with an equal volume of the compound-containing medium. The compounds were applied in a cumulative manner to the wells. The concentration of DMSO was 0.5–0.6% at the highest concentration of the test compounds. […] FPD (ms) and ISI (ms) were analyzed using Mobius QT software designed by WitWerx (Santa Cruz, CA, USA) (Fig 1b).
Baseline FP waveforms that met the following criteria were used for analysis. […] In the FP signals, EAD and TA were defined as slow negative spikes and a sharp deflection with an amplitude ≥ ± 100 μV, respectively (Fig 1c). EAD, TA or both usually appear during or after the second positive deflection. ISI, FPD and FPDcF were not calculated for concentrations in which EAD or TA were observed.
As previously mentioned, total 96 data equally from 4 facilities each were used for the analysis (24 data per facility). […] The root mean squared prediction error (RMSE) was used to show the level of accuracy of the equation predicted for the observed data (Fig 2). With categorical data analysis of FPD, inter-facilities differences were investigated with Kruskal-Wallis test (Fig 4).

[3] = system: human ventricular myocytes; set-up: method as in PMID 9709405; settings: independent of the underlying pacing rate; cited from earlier work
[4] = system: guinea pig ventricular myocytes; set-up: method as in PMID 9709405; settings: independent of the underlying pacing rate; cited from earlier work
[5] = cisapride 3 nM, all 4 facilities, n=24
[6] = cisapride 3 nM, facility A, n=6
[7] = cisapride 3 nM, facility B, n=6
[8] = cisapride 3 nM, facility C, n=6
[9] = cisapride 3 nM, facility D, n=6
[10] = cisapride 10 nM, all 4 facilities, n=24
[11] = cisapride 10 nM, all 4 facilities, n=24, listed as cisapride
[12] = cisapride 10 nM, facility A, n=6
[13] = cisapride 10 nM, facility B, n=6
[14] = cisapride 10 nM, facility C, n=6
[15] = cisapride 10 nM, facility D, n=6
[16] = cisapride 30 nM, all 4 facilities, n=24
[17] = cisapride 30 nM, facility A, n=6
[18] = cisapride 30 nM, facility B, n=6
[19] = cisapride 30 nM, facility C, n=6
[20] = cisapride 30 nM, facility D, n=6
[21] = cisapride 100 nM, all 4 facilities, n=24
[22] = cisapride 100 nM, facility D, n=6

EADs and/or TAs ([2]; at concentrations up to 30 μM): not observed
SMILES: CCS(=O)(=O)N(C)[C@H]1c2cc(C#N)ccc2OC(C)(C)[C@@H]1O (racemic) [Chromanol 293B]
Effect on effective refractory periods [1]: prolonged effective refractory periods in a rate-dependent manner | Slope factor of FPD-ISI regression, % change ([2]; chromanol 293B 1 μM): 0.9162 | Slope factor of FPD-ISI regression, % change ([2]; chromanol 293B 30 μM): 0.9066 | Slope factor of FPD-ISI regression, absolute FPD (ms) ([2]; chromanol 293B 30 μM (sham 0.1674)): 0.4182 | Effect on FPD [2]: prolonged FPD in a concentration-dependent manner | Use (rate) dependence of FPD prolongation [2]: prolonged FPD in a rate-independent manner | Prolongation of APD90 [3]: about 30% | Prolongation of APD90 [4]: about 30%

Preparations in absolute FPD category > 450 ms [2, 5]: 21%(5/24) | Preparations in absolute FPD category > 480 ms [2, 5]: 13%(3/24) | Preparations in absolute FPD category > 500 ms [2, 5]: 17%(4/24) | Preparations in absolute FPD category ≤ 450 ms [2, 5]: 50%(12/24) | Preparations in absolute FPD category > 450 ms [2, 6]: 17%(1/6) | Preparations in absolute FPD category > 480 ms [2, 6]: 17%(1/6) | Preparations in absolute FPD category > 500 ms [2, 6]: 50% (3/6) | Preparations in absolute FPD category ≤ 450 ms [2, 6]: 17%(1/6) | Preparations in absolute FPD category > 450 ms [2, 7]: 17%(1/6) | Preparations in absolute FPD category > 480 ms [2, 7]: 17%(1/6) | Preparations in absolute FPD category > 500 ms [2, 7]: 0% (0/6) | Preparations in absolute FPD category ≤ 450 ms [2, 7]: 67%(4/6) | Preparations in absolute FPD category > 450 ms [2, 8]: 17%(1/6) | Preparations in absolute FPD category > 480 ms [2, 8]: 17%(1/6) | Preparations in absolute FPD category > 500 ms [2, 8]: 17%(1/6) | Preparations in absolute FPD category ≤ 450 ms [2, 8]: 50% (3/6) | Preparations in absolute FPD category > 450 ms [2, 9]: 33%(2/6) | Preparations in absolute FPD category > 480 ms [2, 9]: 0% (0/6) | Preparations in absolute FPD category > 500 ms [2, 9]: 0% (0/6) | Preparations in absolute FPD category ≤ 450 ms [2, 9]: 67%(4/6) | Preparations in absolute FPD category > 450 ms [2, 10]: 38%(9/24) | Preparations in absolute FPD category > 480 ms [2, 10]: 17%(4/24) | Preparations in absolute FPD category > 500 ms [2, 10]: 29%(7/24) | Preparations in absolute FPD category ≤ 450 ms [2, 10]: 17% (4/24) | Preparations in absolute FPD category > 500 ms [2, 11]: 29% | Preparations with EAD/TA [2, 11]: no EAD/TAs were observed | Preparations in absolute FPD category > 450 ms [2, 12]: 0% (0/6) | Preparations in absolute FPD category > 480 ms [2, 12]: 50% (3/6) | Preparations in absolute FPD category > 500 ms [2, 12]: 50% (3/6) | Preparations in absolute FPD category ≤ 450 ms [2, 12]: 0% (0/6) | Preparations in absolute FPD category > 450 ms [2, 13]: 33%(2/6) | Preparations in absolute FPD category > 480 ms [2, 13]: 0% (0/6) | Preparations in absolute FPD category > 500 ms [2, 13]: 17%(1/6) | Preparations in absolute FPD category ≤ 450 ms [2, 13]: 50% (3/6) | Preparations in absolute FPD category > 450 ms [2, 14]: 50% (3/6) | Preparations in absolute FPD category > 480 ms [2, 14]: 0% (0/6) | Preparations in absolute FPD category > 500 ms [2, 14]: 33%(2/6) | Preparations in absolute FPD category ≤ 450 ms [2, 14]: 17%(1/6) | Preparations in absolute FPD category > 450 ms [2, 15]: 67%(4/6) | Preparations in absolute FPD category > 480 ms [2, 15]: 17%(1/6) | Preparations in absolute FPD category > 500 ms [2, 15]: 17%(1/6) | Preparations in absolute FPD category ≤ 450 ms [2, 15]: 0% (0/6) | Preparations in absolute FPD category > 450 ms [2, 16]: 4% (1/24) | Preparations in absolute FPD category > 480 ms [2, 16]: 13%(3/24) | Preparations in absolute FPD category > 500 ms [2, 16]: 71%(17/24) | Preparations in absolute FPD category ≤ 450 ms [2, 16]: 8% (2/24) | Preparations with EAD/TA [2, 16]: 4%(1/24) | Preparations in absolute FPD category > 500 ms ([2]; cisapride 30 nM, all 4 facilities, n=24, listed as cisapride): 71% | Number of preparations that showed EAD/TAs ([2]; cisapride 30 nM, all 4 facilities, of 24): 1 preparation | Preparations in absolute FPD category > 450 ms [2, 17]: 0% (0/6) | Preparations in absolute FPD category > 480 ms [2, 17]: 0% (0/6) | Preparations in absolute FPD category > 500 ms [2, 17]: 83%(5/6) | Preparations in absolute FPD category ≤ 450 ms [2, 17]: 0% (0/6) | Preparations with EAD/TA [2, 17]: 17%(1/6) | Preparations in absolute FPD category > 450 ms [2, 18]: 17%(1/6) | Preparations in absolute FPD category > 480 ms [2, 18]: 0% (0/6) | Preparations in absolute FPD category > 500 ms [2, 18]: 50% (3/6) | Preparations in absolute FPD category ≤ 450 ms [2, 18]: 33%(2/6) | Preparations in absolute FPD category > 450 ms [2, 19]: 0% (0/6) | Preparations in absolute FPD category > 480 ms [2, 19]: 33%(2/6) | Preparations in absolute FPD category > 500 ms [2, 19]: 67%(4/6) | Preparations in absolute FPD category ≤ 450 ms [2, 19]: 0% (0/6) | Preparations in absolute FPD category > 450 ms [2, 20]: 0% (0/6) | Preparations in absolute FPD category > 480 ms [2, 20]: 17%(1/6) | Preparations in absolute FPD category > 500 ms [2, 20]: 83%(5/6) | Preparations in absolute FPD category ≤ 450 ms [2, 20]: 0% (0/6) | Preparations in absolute FPD category > 450 ms [2, 21]: 0% (0/24) | Preparations in absolute FPD category > 480 ms [2, 21]: 0% (0/24) | Preparations in absolute FPD category > 500 ms [2, 21]: 8%(2/24) | Preparations in absolute FPD category ≤ 450 ms [2, 21]: 0% (0/24) | Preparations with EAD/TA [2, 21]: 92%(22/24) | Preparations with EAD/TA ([2]; cisapride 100 nM, all 4 facilities, n=24, listed as cisapride): 92% | Preparations with EAD/TA ([2]; cisapride 100 nM, facility A, n=6): 100%(6/6) | Preparations with EAD/TA ([2]; cisapride 100 nM, facility B, n=6): 100%(6/6) | Preparations with EAD/TA ([2]; cisapride 100 nM, facility C, n=6): 100%(6/6) | Preparations in absolute FPD category > 450 ms [2, 22]: 0% (0/6) | Preparations in absolute FPD category > 480 ms [2, 22]: 0% (0/6) | Preparations in absolute FPD category > 500 ms [2, 22]: 33%(2/6) | Preparations in absolute FPD category ≤ 450 ms [2, 22]: 0% (0/6) | Preparations with EAD/TA [2, 22]: 67%(4/6) | Preparations with EAD/TA ([2]; cisapride 300 nM, all 4 facilities, n=24): 100%(24/24) | Preparations with EAD/TA ([2]; cisapride 300 nM, facility D, n=6): 100%(6/6)
SMILES: COc1cc(N)c(Cl)cc1C(=O)NC1CCN(CCCOc2ccc(F)cc2)CC1OC (stereo not drawn) [Cisapride, cisapride]
Delta FPDcF ([2]; categorical analysis, Fridericia correction, S5 Table): increased in a concentration-dependent manner | Delta FPD ([2]; categorical analysis, S4 Table): increased in a concentration-dependent manner | Slope factor of FPD-ISI regression, % change ([2]; cisapride 3 nM): 0.6124 | Slope factor of FPD-ISI regression, % change ([2]; cisapride 30 nM): 1.2274 | Slope factor of FPD-ISI regression, absolute FPD (ms) ([2]; cisapride 30 nM (sham 0.1204)): 0.1644 | Effect on FPD [2]: prolonged FPD in a concentration-dependent manner | Use (rate) dependence of FPD prolongation [2]: induced FPD prolongation in a reverse use-dependent manner

SMILES: Cc1cccc(CCN2CCC(C(=O)c3ccc(NS(C)(=O)=O)cc3)CC2)n1 [E-4031]
Slope factor of FPD-ISI regression, % change ([2]; E-4031 1 nM): 0.9347 | Slope factor of FPD-ISI regression, % change ([2]; E-4031 10 nM): 1.8977 | Slope factor of FPD-ISI regression, absolute FPD (ms) ([2]; E-4031 10 nM (sham 0.1653)): 0.3328 | Use (rate) dependence of FPD prolongation [2]: induced FPD prolongation in a reverse use-dependent manner
